Measured values: US11299760B2 (Amgen Inc., priority 2013, dated 2022)

Key:
Cells producing MAb A = test: mock perfusion assay, glycan analysis; format: cell-based, Chinese hamster; conditions: for Man5 / Man6 / Man7 / Man8a / Man8b / Man9: day 10
Protocol: (§1) Mock perfusion assay is a small scale, plate-based assay that is designed to mimic perfusion conditions in bioreactors through daily medium exchanges. For a 10-day mock perfusion assay, passaging cultures of various production cell lines were diluted 1:5 into chemically defined base perfusion medium in a 24 deep-well plate at a final volume of 3 ml per well. Mock perfusion was initiated on day 3 when the cells were spun down at 1000 rpm for 5 minutes and 25% of each spent culture medium was exchanged with the equivalent volume of fresh perfusion media. Subsequent medium exchange percentages were 40% on days 4-8 and 50% on day 9. Exchanged supernatants were stored at 4° C. prior to analysis.
(§2) Analysis of cell culture parameters was also started on day 3; viable cell density and viability were analyzed using the ViaCount Guava assay as previously described. Glucose was measured daily starting on day 3 and was maintained at 12 g/l. Stored supernatants were analyzed for antibody titer as described previously. Samples of supernatant fluid from days 6, 8 and 10 were also analyzed for the presence and type of glycans by HILIC analysis.
(§3) The cell lines used included three production cell lines that are known to generate mAbs with low high mannose glycans (MAb A, MAb B and MAb C) and one production cell line that consistently produces product with high levels of high mannose glycans (MAb D). […] Equivalent volumes of methanol were added daily to control cultures (columns 1 and 2 of the 24-well plate). This scheme is depicted below:
(§4) Total high mannose values (Total HM column) and the corresponding distributions into high mannose species from Man5 through Man9 were determined for purified antibody samples collected on day 10. Each value shown in Table 4 represents an average of duplicates.

Cells producing MAb B = test: mock perfusion assay, glycan analysis; format: cell-based, Chinese hamster; conditions: for Man5 / Man6 / Man7 / Man8a / Man8b / Man9: day 10
Protocol: as §1, §2, §3, §4

Cells producing MAb D = test: mock perfusion assay, glycan analysis; format: cell-based, Chinese hamster; conditions: for Man5 / Man6 / Man7 / Man8a / Man8b / Man9: day 10
Protocol: as §1, §2, §3, §4

[1] = test system: recombinant cell line producing MAb E; test: ATF bioreactors, cell culture performance; format: cell-based; conditions: 500 nM monensin for ~22 hours from day 8; ATF reactors Ra, Rb
Protocol: Cells in the control reactor (black circles) were grown in the absence of monensin. Viable cell density is illustrated in FIG. 1. FIG. 2 presents the results of viability analysis. […] Daily spent medium samples were also submitted for titer analysis.
The applicability of using monensin to modulate high mannose levels in a large scale, controlled production setting was evaluated using a recombinant cell line producing MAb E in alternating tangential flow (ATF) bioreactors. MAb E cells grown in growth medium for the seed train were used to inoculate the N-1 bioreactor at 6×10^5 cells/ml in growth medium. The cells from N-1 bioreactor were then used to inoculate three, 2 L production bioreactors (N) at 7.5×10^5 cells/ml in base perfusion medium (referred to as control, Ra, and Rb bioreactors).
The production bioreactors were grown for 20 days at pH 7.00, 36° C., 30% DO and 400 rpm agitation. These production tanks were run with the ATF system starting on day 3 with 0.5 vol/day perfusion rate, which was increased to 0.6 vol/day, 0.8352 vol/day and 1 vol/day on day 6, 7 and 8, respectively. Glucose levels were maintained separately at 5 g/L since the perfusion medium was prepared without glucose.
Antifoam was also added into the tank as needed, while 1M Sodium Carbonate was used to maintain pH at the desired setpoint. […]

Cells producing MAb C = test: mock perfusion assay, glycan analysis; format: cell-based, Chinese hamster
Protocol: as §1, §2
Equivalent volumes of methanol were added daily to control cultures (columns 1 and 2 of the 24-well plate). This scheme is depicted below:
as §4

[2] = constant monensin 25 nM from day 3, Day 6
[3] = constant monensin 25 nM from day 3, Day 8
[4] = constant monensin 25 nM from day 3, Day 10
[5] = increasing monensin (25 nM day 4, 50 nM days 5-6, 100 nM days 7-9), Day 6
[6] = increasing monensin (25 nM day 4, 50 nM days 5-6, 100 nM days 7-9), Day 8
[7] = increasing monensin (25 nM day 4, 50 nM days 5-6, 100 nM days 7-9), Day 10
[8] = increasing monensin (to 100 nM)
[9] = constant monensin 25 nM, day 10
[10] = increasing monensin (to 100 nM), day 10

Structure (SMILES): CC[C@@]1([C@@H]2O[C@@H]([C@H]3O[C@@](O)(CO)[C@H](C)C[C@@H]3C)C[C@@H]2C)CC[C@H]([C@]2(C)CC[C@]3(C[C@H](O)[C@@H](C)[C@@H]([C@@H](C)[C@@H](OC)[C@H](C)C(=O)O)O3)O2)O1 [monensin]
- Total HM (Cells producing MAb A; [2]): 55.7%
- Total HM (Cells producing MAb A; [3]): 19.7%
- Total HM (Cells producing MAb A; [4]): 9%
- Man5 (Cells producing MAb A; constant monensin 25 nM): 5.6%
- Man6 (Cells producing MAb A; constant monensin 25 nM): 1.2%
- Man7 (Cells producing MAb A; constant monensin 25 nM): 1.0%
- Man8a (Cells producing MAb A; constant monensin 25 nM): 0.4%
- Man8b (Cells producing MAb A; constant monensin 25 nM): 0.6%
- Man9 (Cells producing MAb A; constant monensin 25 nM): 0.2%
- Total HM (Cells producing MAb A; increasing monensin (25 nM day 4, 50 nM days 5-9), Day 6): 61.9%
- Total HM (Cells producing MAb A; increasing monensin (25 nM day 4, 50 nM days 5-9), Day 8): 44.9%
- Total HM (Cells producing MAb A; increasing monensin (25 nM day 4, 50 nM days 5-9), Day 10): 23.2%
- Man5 (Cells producing MAb A; increasing monensin (to 50 nM)): 14.2%
- Man6 (Cells producing MAb A; increasing monensin (to 50 nM)): 3.7%
- Man7 (Cells producing MAb A; increasing monensin (to 50 nM)): 1.9%
- Man8a (Cells producing MAb A; increasing monensin (to 50 nM)): 0.6%
- Man8b (Cells producing MAb A; increasing monensin (to 50 nM)): 1.4%
- Man9 (Cells producing MAb A; increasing monensin (to 50 nM)): 0.4%
- Total HM (Cells producing MAb B; [2]): 9.6%
- Total HM (Cells producing MAb B; [3]): 4.6%
- Total HM (Cells producing MAb B; [4]): 4.0%
- Man5 (Cells producing MAb B; constant monensin 25 nM): 2.2%
- Man6 (Cells producing MAb B; constant monensin 25 nM): 0.7%
- Man7 (Cells producing MAb B; constant monensin 25 nM): 0.5%
- Man8a (Cells producing MAb B; constant monensin 25 nM): 0.3%
- Man8b (Cells producing MAb B; constant monensin 25 nM): 0.3%
- Man9 (Cells producing MAb B; constant monensin 25 nM): 0.0%
- Total HM (Cells producing MAb B; [5]): 13.2%
- Total HM (Cells producing MAb B; [6]): 12.4%
- Total HM (Cells producing MAb B; [7]): 14.0%
- Man5 (Cells producing MAb B; [8]): 7.7%
- Man6 (Cells producing MAb B; [8]): 3.0%
- Man7 (Cells producing MAb B; [8]): 2.0%
- Man8a (Cells producing MAb B; [8]): 0.3%
- Man8b (Cells producing MAb B; [8]): 0.9%
- Man9 (Cells producing MAb B; [8]): 0.1%
- Total HM (Cells producing MAb D; [2]): 70.6%
- Total HM (Cells producing MAb D; [3]): 80.1%
- Total HM (Cells producing MAb D; [4]): 72.6%
- Man5 (Cells producing MAb D; constant monensin 25 nM): 30.4%
- Man6 (Cells producing MAb D; constant monensin 25 nM): 14.7%
- Man7 (Cells producing MAb D; constant monensin 25 nM): 15.3%
- Man8a (Cells producing MAb D; constant monensin 25 nM): 0.7%
- Man8b (Cells producing MAb D; constant monensin 25 nM): 10.1%
- Man9 (Cells producing MAb D; constant monensin 25 nM): 1.4%
- high mannose species upregulated (Cells producing MAb D; increasing dose of monensin): primarily upregulated Man7 and Man8(b) high mannose glycans
- Total HM (Cells producing MAb D; [5]): 83.0%
- Total HM (Cells producing MAb D; [6]): 92.5%
- Total HM (Cells producing MAb D; [7]): 94.9%
- Man5 (Cells producing MAb D; [8]): 12.8%
- Man6 (Cells producing MAb D; [8]): 14.9%
- Man7 (Cells producing MAb D; [8]): 27.2%
- Man8a (Cells producing MAb D; [8]): 0.8%
- Man8b (Cells producing MAb D; [8]): 34.3%
- Man9 (Cells producing MAb D; [8]): 5.0%
- impact on cell growth and viability [1]: slight negative impact on cell growth and viability
- titers compared to the control tank [1]: marginally improved titers
- Total HM (Cells producing MAb C; [2]): 49.6%
- Total HM (Cells producing MAb C; [3]): 31.1%
- Total HM (Cells producing MAb C; [4]): 30.9%
- Man6 (Cells producing MAb C; [9]): 5.3%
- Man7 (Cells producing MAb C; [9]): 3.6%
- Man8a (Cells producing MAb C; [9]): 0.7%
- Man8b (Cells producing MAb C; [9]): 1.4%
- Man9 (Cells producing MAb C; [9]): 0.3%
- Total HM (Cells producing MAb C; [5]): 56.6%
- Total HM (Cells producing MAb C; [6]): 67.6%
- Total HM (Cells producing MAb C; [7]): 65.8%
- Man5 (Cells producing MAb C; [10]): 31.6%
- Man6 (Cells producing MAb C; [10]): 13.7%
- Man7 (Cells producing MAb C; [10]): 12.3%
- Man8a (Cells producing MAb C; [10]): 1.0%
- Man8b (Cells producing MAb C; [10]): 5.9%
- Man9 (Cells producing MAb C; [10]): 1.3%
